Measurements from patent US20110045101A1, “FUNGICIDAL SUBSTITUTED AZOLES” (E.I. Du Pont De Nemours and Company, priority 2009, published 2011).
Marks after values point to notes of the source that are not given here.

Experiments:
Type in all cases: in vivo
Conditions in all cases: 100 = 100% disease control
[1] = system: Puccinia recondita f. sp. tritici; test: Test H: wheat leaf rust, test suspension sprayed after inoculation of wheat seedlings, visual disease rating
How it was run: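 Wheat seedlings inoculated with P. recondita spores, held 24 h saturated at 20 °C, then 2 days in growth chamber at 20 °C; compound suspension (acetone/water with Trem 014) sprayed to run-off afterwards. Rated visually; 200 ppm (≈500 g/ha) unless marked *, which denotes 40 ppm.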

[2] = system: Puccinia recondita f. sp. tritici; test: Test I: wheat leaf rust on wheat seedlings, sprayed the day before inoculation, visual disease rating
How it was run: (§1)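 Plants received a run-off spray at 200 ppm (equivalent to 500 g/ha) or, for starred values, 40 ppm. Formulation used acetone at 3% of volume in a 50/50 acetone/water mix carrying 250 ppm Trem® 014.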

Septoria nodorum = test: Test F: wheat glume blotch on wheat seedlings, sprayed the day before inoculation, visual disease rating
How it was run: as §1

Septoria tritici = test: Test G: wheat leaf blotch on wheat seedlings, sprayed the day before inoculation, visual disease rating
How it was run: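 Disease was rated visually after Septoria tritici inoculation, 48 h saturated incubation at 24°C and 19 days in a 20°C growth chamber. Inoculation followed one day after run-off spraying of seedlings with compound at 200 ppm (≈500 g/ha) or, where marked, 40 ppm, formulated in acetone/water with surfactant.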

Alternaria solani = test: Test D: tomato early blight, sprayed the day before inoculation, visual disease rating
How it was run: as §1

[3] = system: Erysiphe graminis f. sp. tritici; test: Test J: wheat powdery mildew on wheat seedlings, sprayed the day before inoculation, visual disease rating
How it was run: as §1

Botrytis cinerea = test: Test C: tomato Botrytis on tomato seedlings, sprayed the day before inoculation, visual disease rating
How it was run: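 Rate: 200 ppm sprayed to run-off, corresponding to 500 g/ha; flagged values used 40 ppm. Vehicle was aqueous acetone (1:1) plus 250 ppm surfactant, compounds predissolved in acetone at 3% of volume. Plants were tomato seedlings.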

[4] = 200 ppm, 0 = no control relative to controls
[5] = 40 ppm (marked *), 0 = no control

COc1ccc(F)c(-c2c(Cl)ncn2-c2ccc(C#N)cc2)c1F [compound 527]
Test H disease control rating [1, 4]: 37% | Test I disease control rating [2, 4]: 91% | Test F disease control rating (Septoria nodorum; [4]): 0% | Test G disease control rating (Septoria tritici; [4]): 95% | Test D disease control rating (Alternaria solani; [4]): 99% | Test J disease control rating [3, 4]: 88% | Test C disease control rating (Botrytis cinerea; [4]): 100%

COc1ccc(F)c(-c2c(C)nc(Br)n2-c2ccc(Cl)nc2)c1F [compound 735]
Test H disease control rating [1, 4]: 9% | Test I disease control rating [2, 4]: 100% | Test F disease control rating (Septoria nodorum; [4]): 99% | Test G disease control rating (Septoria tritici; [4]): 100% | Test D disease control rating (Alternaria solani; [4]): 100% | Test J disease control rating [3, 4]: 100% | Test C disease control rating (Botrytis cinerea; [4]): 100%

Cc1ncc(-c2ccc(Cl)cc2)n1-c1c(F)cc([N+](=O)[O-])cc1F [compound 700]
Test H disease control rating ([1]; 40 ppm (marked *)): 0* % | Test I disease control rating ([2]; 40 ppm (marked *)): 0* % | Test F disease control rating (Septoria nodorum; 40 ppm (marked *)): 0* % | Test G disease control rating (Septoria tritici; 40 ppm (marked *)): 53* % | Test D disease control rating (Alternaria solani; 40 ppm (marked *)): 0* % | Test J disease control rating ([3]; 40 ppm (marked *)): 0* % | Test C disease control rating (Botrytis cinerea; 40 ppm (marked *)): 93* %

Cc1cccc(-c2c(CCl)nc(Cl)n2-c2ccc(Cl)c(F)c2)n1 [compound 379]
Test H disease control rating [1, 4]: 0% | Test I disease control rating [2, 4]: 27% | Test F disease control rating (Septoria nodorum; [4]): 0% | Test G disease control rating (Septoria tritici; [4]): 86% | Test D disease control rating (Alternaria solani; [4]): 0% | Test J disease control rating [3, 4]: 0% | Test C disease control rating (Botrytis cinerea; [4]): 99%

COc1ncccc1-n1c(Cl)nc(Cl)c1-c1c(F)cccc1F [compound 616]
Test H disease control rating [1, 4]: 0% | Test I disease control rating [2, 4]: 98% | Test F disease control rating (Septoria nodorum; [4]): 0% | Test G disease control rating (Septoria tritici; [4]): 99% | Test D disease control rating (Alternaria solani; [4]): 0% | Test J disease control rating [3, 4]: 99% | Test C disease control rating (Botrytis cinerea; [4]): 100%

COc1cc(F)c(-c2c(Cl)nc(Cl)n2-c2ccc(C)c(I)c2)c(F)c1 [compound 647]
Test H disease control rating ([1]; 40 ppm (marked *)): 0* % | Test I disease control rating ([2]; 40 ppm (marked *)): 0* % | Test F disease control rating (Septoria nodorum; 40 ppm (marked *)): 0* % | Test G disease control rating (Septoria tritici; [4]): 95% | Test D disease control rating (Alternaria solani; 40 ppm (marked *)): 0* % | Test J disease control rating ([3]; 40 ppm (marked *)): 69* % | Test C disease control rating (Botrytis cinerea; 40 ppm (marked *)): 0* %

COc1ccc(F)c(-c2c(Cl)nc(Cl)n2-c2ccc(Cl)cc2)c1F [compound 309]
Test H disease control rating [1, 4]: 11% | Test I disease control rating [2, 4]: 100% | Test F disease control rating (Septoria nodorum; [4]): 100% | Test G disease control rating (Septoria tritici; [4]): 97% | Test D disease control rating (Alternaria solani; [4]): 100% | Test J disease control rating [3, 4]: 100% | Test C disease control rating (Botrytis cinerea; [4]): 100%

COc1ccc(Cl)c(-c2c(Cl)ncn2-c2ccc(Cl)cc2)c1F [compound 482]
Test H disease control rating [1, 4]: 0% | Test I disease control rating [2, 4]: 91% | Test F disease control rating (Septoria nodorum; [4]): 69% | Test G disease control rating (Septoria tritici; [4]): 95% | Test D disease control rating (Alternaria solani; [4]): 99% | Test J disease control rating [3, 4]: 99% | Test C disease control rating (Botrytis cinerea; [4]): 99%

Cc1nc(Cl)c(Cc2c(F)cc(F)cc2F)n1-c1c(Cl)cccc1Cl [compound 537]
Test H disease control rating [1, 4]: 9% | Test I disease control rating [2, 4]: 100% | Test F disease control rating (Septoria nodorum; [4]): 60% | Test G disease control rating (Septoria tritici; [4]): 97% | Test D disease control rating (Alternaria solani; [4]): 76% | Test J disease control rating [3, 4]: 99% | Test C disease control rating (Botrytis cinerea; [4]): 99%

COc1ccc(F)c(-c2c(Cl)nc(Cl)n2-c2ccc(C)cc2)c1F [compound 310]
Test H disease control rating [1, 4]: 61% | Test I disease control rating [2, 4]: 100% | Test F disease control rating (Septoria nodorum; [4]): 99% | Test G disease control rating (Septoria tritici; [4]): 96% | Test D disease control rating (Alternaria solani; [4]): 100% | Test J disease control rating [3, 4]: 100% | Test C disease control rating (Botrytis cinerea; [4]): 99%

COc1ccc(F)c(-c2c(Cl)nc(Br)n2-c2ccc(Cl)c(C)c2)c1F [compound 401]
Test H disease control rating [1, 4]: 0% | Test I disease control rating [2, 4]: 73% | Test F disease control rating (Septoria nodorum; [4]): 0% | Test G disease control rating (Septoria tritici; [4]): 96% | Test D disease control rating (Alternaria solani; [4]): 100% | Test J disease control rating [3, 4]: 100% | Test C disease control rating (Botrytis cinerea; [4]): 99%

N#Cc1ccc(F)c(-c2c(Cl)nc(Br)n2-c2ccc(Cl)cc2)c1F [Compound 419, 3-[2-bromo-4-chloro-1-(4-chlorophenyl)-1H-imidazol-5-yl]-2,4-difluorobenzonitrile]
pest or weed control at 200 ppm ([1]; Puccinia recondita, 96 h, 200 ppm, 0 = no control relative to controls): 0% | pest or weed control at 200 ppm ([2]; Puccinia recondita, 168 h, 200 ppm, 0 = no control relative to controls): 97% | pest or weed control at 200 ppm (Septoria nodorum; Parastagonospora nodorum, 264 h, 200 ppm, 0 = no control relative to controls): 100% | pest or weed control at 200 ppm (Septoria tritici; Zymoseptoria tritici, 504 h, 200 ppm, 0 = no control relative to controls): 100% | pest or weed control at 200 ppm (Alternaria solani; Alternaria solani, 168 h, 200 ppm, 0 = no control relative to controls): 100% | pest or weed control at 200 ppm ([3]; Blumeria graminis, 168 h, 200 ppm, 0 = no control relative to controls): 99% | pest or weed control at 200 ppm (Botrytis cinerea; Botrytis cinerea, 120 h, 200 ppm, 0 = no control relative to controls): 100%

COc1cc(F)c(-n2c(Cl)nc(CCl)c2-c2cccc(F)c2)c(F)c1 [compound 712]
Test H disease control rating ([1]; 40 ppm (marked *)): 7* % | Test I disease control rating ([2]; 40 ppm (marked *)): 86* % | Test F disease control rating (Septoria nodorum; 40 ppm (marked *)): 0* % | Test G disease control rating (Septoria tritici; [4]): 95% | Test D disease control rating (Alternaria solani; 40 ppm (marked *)): 57* % | Test J disease control rating ([3]; 40 ppm (marked *)): 61* % | Test C disease control rating (Botrytis cinerea; 40 ppm (marked *)): 100* %

COc1cc(F)c(-c2c(Cl)nc(Cl)n2-c2cc(C)cnc2Cl)c(F)c1 [compound 677]
Test H disease control rating [1, 4]: 100% | Test I disease control rating [2, 4]: 100% | Test F disease control rating (Septoria nodorum; [4]): 100% | Test G disease control rating (Septoria tritici; [4]): 99% | Test D disease control rating (Alternaria solani; [4]): 100% | Test J disease control rating [3, 4]: 100% | Test C disease control rating (Botrytis cinerea; [4]): 100%

COc1cc(OC)cc(-n2c(C)nc(Cl)c2Cc2c(F)cc(F)cc2F)c1 [compound 534]
Test H disease control rating [1, 4]: 0% | Test I disease control rating [2, 4]: 0% | Test F disease control rating (Septoria nodorum; [4]): 0% | Test G disease control rating (Septoria tritici; [4]): 2% | Test D disease control rating (Alternaria solani; [4]): 0% | Test J disease control rating [3, 4]: 0% | Test C disease control rating (Botrytis cinerea; [4]): 38%

CSc1sc(-c2c(Br)nc(Br)n2-c2ccc(Cl)cc2)cc1Br [compound 408]
Test H disease control rating [1, 5]: 0* % | Test I disease control rating [2, 5]: 0* % | Test F disease control rating (Septoria nodorum; [5]): 0* % | Test G disease control rating (Septoria tritici; [5]): 3* % | Test D disease control rating (Alternaria solani; [5]): 0* % | Test J disease control rating [3, 5]: 0* % | Test C disease control rating (Botrytis cinerea; [5]): 0* %

Cc1nc(C)n(-c2ccc(F)cc2)c1-c1c(F)ccc(F)c1F [compound 417]
Test H disease control rating [1, 5]: 9* % | Test I disease control rating [2, 5]: 9* % | Test F disease control rating (Septoria nodorum; [5]): 0* % | Test G disease control rating (Septoria tritici; [5]): 89* % | Test D disease control rating (Alternaria solani; [5]): 99* % | Test J disease control rating [3, 5]: 94* % | Test C disease control rating (Botrytis cinerea; [5]): 100* %

COc1ccc(F)c(-c2c(Cl)nc(Br)n2-c2ccc(C)c(F)c2)c1F [compound 551]
Test H disease control rating [1, 4]: 0% | Test I disease control rating [2, 4]: 100% | Test F disease control rating (Septoria nodorum; [4]): 96% | Test G disease control rating (Septoria tritici; [4]): 98% | Test D disease control rating (Alternaria solani; [4]): 100% | Test J disease control rating [3, 4]: 100% | Test C disease control rating (Botrytis cinerea; [4]): 100%
